Reference: patent publication US4737518A, “Lipid derivatives, their production and use” (Takeda Chemical Industries, Ltd., priority 1984, dated 1988)

Assays:
[1] = system: rabbit platelet aggregation by PAF; assay: Inhibitory activity on rabbit platelet aggregation by PAF; assay type: cell-based; conditions: Oryctolagus cuniculus, PAF 1×10^-8 M, read-out: rate of inhibition of rabbit platelet aggregation by PAF; for inhibition at 30 µM: test drug 3 × 10^-5 M; for inhibition at 3 µM: test drug 3 × 10^-6 M; for inhibition at 0.3 µM: test drug 3 × 10^-7 M; for inhibition at 0.03 µM: test drug 3 × 10^-8 M
PAF-induced hypotension = assay: Inhibitory activity against PAF-induced hypotension in rats; assay type: in vivo, rat (male Spraque-Dawley); conditions: PAF 0.3 μg/kg i.v.
Protocol: Inhibitory activity against PAF-induced hypotension in rats
Male Spraque-Dawley rats, with a body weight of about 400 g, were used under pentobarbital sodium (50 mg/kg, intravenous administration) anesthesia. A cannula was inserted into the femoral artery and secured in position for measurement of blood pressure and another cannula into the femoral vein for administration of a solution of the drug. The blood pressure was measured via a pressure transducer and recorded on a polygraph. First, 0.3 μg/kg of PAF was administered intravenously and the hypotensive response was recorded.
The inhibitory activity against PAF-induced hypotension was estimated from the rate of PAF-induced hypotensive response (Δ mmHg) after the drug administration to hypotensive response (Δ mmHg) by PAF before the drug administration.

HL-60 cells = assay: Effect on inducing differentiation of HL-60 cells (NBT-positive cells); assay type: cell-based, human; conditions: 6 days; for Emax: Homo sapiens, HL-60, 144 h, at optimal conc., NBT-positive relative to live cells, read-out: Maximum differentiation extent: Differentiation
Protocol: Assay of the effects on inducing differentiation of HL-60 cells (human promyelocytic leukemia cells) and Neuro-2a cells (mouse neuroblastoma cells): RPMI-1640 medium (Flow Laboratories, Inc.) supplemented with 20% fetal calf serum (M.A. […] The culture was incubated at 37° C. in a 5% CO2 incubator for 6 days. […] The reaction was allowed to proceed at 37° C. for 20 minutes. The reaction was stopped by cooling with ice, and the cells were washed by means of centrifugation, followed by collecting 3-5×10^4 cells and by subjecting to centrifugation using Cytospin centrifuge to prepare a cell smear, which was fixed with methanol and stained with Kernechtrot solution. On each cell smear, the percentage of NBT-positive cells relative to live cells, […] by examination of a minimum of 200 cells, was expressed as the differentiation extent.

SMILES	inhibition at 30 µM [1] [%]	inhibition at 3 µM [1] [%]	inhibition at 0.3 µM [1] [%]	other results
CCCCCCCCCCCCCCCCCCNC(=O)OCC(COC(=O)N(CC[N+](C)(C)C)C(=O)OC)OC (stereo not shown) [Example 56, 2-O-Methyl-1-O-[N-methoxycarbonyl-N-(2'-trimethylammonioethyl)]carbamoyl-3-O-octadecylcarbamoylglycerol iodide]	100	64	–	–
CCCCCCCCCCCCCCCCCCOCC(COC(=O)NCC[n+]1ccsc1)OCc1ccccc1 (stereo not shown) [Example 8, 2-O-Benzyl-1-O-octadecyl-3-O-(2'-thiazolioethyl)carbamoylglycerol bromide]	100	–	–	–
CCCCCCCCCCCCCCCCCCNC(=O)OCC(COC(=O)N(Cc1csc[n+]1CC)C(C)=O)OC.[I-] (stereo not shown) [Example 149, 4-[N-Acetyl-N-(3-octadecylcarbamoyloxy-2-methoxypropoxycarbonyl)amino]methyl-3-ethylthiazolium iodide]	–	100	100	inhibition at 0.03 µM [1]: 78%; Restoration rate (PAF-induced hypotension; 0.1 mg/kg i.v., after 5 min): 100%; Restoration rate (PAF-induced hypotension; 0.1 mg/kg i.v., after 60 min): 39%; Restoration rate (PAF-induced hypotension; 1 mg/kg i.v., after 5 min): 100%; Restoration rate (PAF-induced hypotension; 1 mg/kg i.v., after 60 min): 100%
CCCCCCCCCCCCCCCCCCNC(=O)OCC(COC(=O)N(C(C)=O)C1CCC[N+](C)(CC)C1)OC (stereo not shown) [Example 161, 3-[N-Acetyl-N-(3-octadecylcarbamoyloxy-2-methoxypropoxycarbonyl)]amino-1-ethyl-1-methylpiperidinium chloride]	100	100	6	–
CCCCCCCCCCCCCCCCCCNC(=O)OCC(COC(=O)N(Cc1cccc[n+]1C)C(C)=O)OCC (stereo not shown) [Example 116]	100	100	100	Restoration rate (PAF-induced hypotension; 1 mg/kg i.v., after 5 min): 100%; Restoration rate (PAF-induced hypotension; 1 mg/kg i.v., after 60 min): 77%
CCCCCCCCCCCCCCCCCCNC(=O)OCC(Cn1ccc(=O)n(CC[N+](C)(C)C)c1=O)OC (stereo not shown) [Example 136, N-[2-{1-(3-Octadecylcarbamoyloxy-2-methoxypropyl)uracil-3-yl}ethyl]-N,N,N-trimethylammonium chloride]	100	100	11	–
CCCCCCCCCCCCCCCCCCNC(=O)OCC(COC(=O)N(CC[N+](C)(C)C)C(=O)N(C)C)OC (stereo not shown) [Example 62, 1-O-[N-Dimethylcarbamoyl-N-(2'-trimethylammonioethyl)]carbamoyl-2-O-methyl-3-O-octadecylcarbamoylglycerol iodide]	100	34	–	–
CCCCCCCCCCCCCCCCCCOCC(COC(=O)N(CC[N+](C)(C)C)C(C)=O)NC(C)=O (stereo not shown) [Example 20, 1-Octadecyloxy-2-acetamido-3-[N-acetyl-N-(2'-trimethylammonioethyl)]carbamoyloxypropane iodide]	100	100	–	–
CCCCCCCCCCCCCCCCCCNC(=O)OCC(COC(=O)N(Cc1cccc[n+]1CC)C(C)=O)OCC (stereo not shown) [Example 117]	–	100	100	Restoration rate (PAF-induced hypotension; 1 mg/kg i.v., after 5 min): 100%; Restoration rate (PAF-induced hypotension; 1 mg/kg i.v., after 60 min): 100%
CCCCCCCCCCCCCCCCCCNC(=O)OCC(COC(=O)N(Cc1cccc[n+]1CCC)C(C)=O)OC (stereo not shown) [Example 173, 3-[N-Acetyl-N-(N'-propylpyridinio-2-yl)methyl]carbamoyl-1-octadecylcarbamoyl-2-methylglycerol chloride]	100	100	100	–
CCCCCCCCCCCCCCCCCCNC(=O)OCC(COC(=O)N(Cc1csc[n+]1C)C(C)=O)OC (stereo not shown) [Example 148, 4-[N-Acetyl-N-(3-octadecylcarbamoyloxy-2-methoxypropoxycarbonyl)amino]methyl-3-methylthiazolium iodide]	–	100	42	–
CCCCCCCCCCCCCCCCCCNC(=O)OCC(COC(=O)N(Cc1scc[n+]1CCC)C(C)=O)OC (stereo not shown) [Example 144, 2-[N-Acetyl-N-(3-octadecylcarbamoyloxy-2-methoxypropoxycarbonyl)amino]methyl-3-propylthiazolium iodide]	–	100	100	inhibition at 0.03 µM [1]: 9%
CCCCCCCCCCCCCCCCCCOCC(Cn1ccc(=O)n(CC[N+](C)(C)C)c1=O)OC(C)=O (stereo not shown) [Example 102, 1-(2-Acetyloxy-3-octadecyloxy)propyl-3-(2-trimethylammonioethyl)urasil chloride]	100	100	–	inhibition at 1 µM ([1]; test drug 1 × 10^-6 M): 72%
CCCCCCCCCCCCCCCCCCNC(=O)OCC(COC(=O)N(Cc1scc[n+]1CC)C(C)=O)OC.[I-] (stereo not shown) [Example 143, 2-[N-Acetyl-N-(3-octadecylcarbamoyloxy-2-methoxypropoxycarbonyl)amino]methyl-3-ethylthiazolium iodide]	–	100	100	Restoration rate (PAF-induced hypotension; 1 mg/kg i.v., after 5 min): 100%; Restoration rate (PAF-induced hypotension; 1 mg/kg i.v., after 60 min): 100%
C=CC[n+]1ccccc1CN(C(C)=O)C(=O)OCC(COC(=O)NCCCCCCCCCCCCCCCCCC)OC (stereo not shown) [Example 174, 3-[N-Acetyl-N-(N'-allylpyridinio-2-yl)methyl]carbamoyl-1-octadecylcarbamoyl-2-methylglycerol chloride]	100	100	100	–
CCCCCCCCCCCCCCCCCCNC(=O)OCC(COC(=O)N(Cc1scc[n+]1CCCC)C(C)=O)OC (stereo not shown) [Example 145, 2-[N-Acetyl-N-(3-octadecylcarbamoyloxy-2-methoxypropoxycarbonyl)amino]methyl-3-butylthiazolium iodide]	–	100	100	–
CCCCCCCCCCCCCCCCCCNC(=O)OCC(COC(=O)NCC[n+]1ccsc1)OC (stereo not shown) [Example 14, 2-O-Methyl-1-O-octadecylcarbamoyl-3-O-(2'-thiazolioethyl)carbamoylglycerol bromide]	100	52	–	–
CCCCCCCCCCCCCCCCCCOCC(COC(=O)NCC[N+](C)(C)C)NC(C)=O (stereo not shown) [Example 19, 1-Octadecyloxy-2-acetamido-3-(2'-trimethylammonioethyl)carbamoyloxypropane iodide]	72	–	–	–
CCCCCCCCCCCCCCCCCCNC(=O)OCC(COC(=O)N(Cc1scc[n+]1C)C(C)=O)OC.[I-] (stereo not shown) [Example 142, 2-[N-Acetyl-N-(3-octadecylcarbamoyloxy-2-methoxypropoxycarbonyl)amino]methyl-3-methylthiazolium iodide]	100	100	100	inhibition at 0.03 µM [1]: 25%; Restoration rate (PAF-induced hypotension; 1 mg/kg i.v., after 5 min): 100%; Restoration rate (PAF-induced hypotension; 1 mg/kg i.v., after 60 min): 100%
CCCCCCCCCCCCCCCCCCNC(=O)OCC(COC(=O)N(Cc1cccc[n+]1CCCC)C(C)=O)OC (stereo not shown) [Example 177, 3-[N-Acetyl-N-(N'-butylpyridinio-2-yl)methyl]carbamoyl-1-octadecylcarbamoyl-2-methylglycerol chloride]	–	–	–	Maximum differentiation extent: Optimal conc. (HL-60 cells): 0.48 µg/mL; Emax (HL-60 cells): 91%
CCCCCCCCCCCCCCCCCCNC(=O)OCC(COC(=O)NCC[N+](C)(C)C)OC (stereo not shown) [Example 10, 2-O-Methyl-1-O-octadecylcarbamoyl-3-O-(2'-trimethylammonioethyl)carbamoylglycerol iodide]	82	–	–	–
CCCCCCCCCCCCCCCCCCNC(=O)OCC(CNC(=O)N(Cc1cccc[n+]1C)C(C)=O)OC.[Cl-] (stereo not shown) [Example 106, 1-Methyl-2-[N-acetyl-N'-(3-octadecylcarbamoyloxy-2-methoxypropyl)ureido]methylpyridinium chloride]	–	–	–	Maximum differentiation extent: Optimal conc. (HL-60 cells): 1.88 µg/mL; Emax (HL-60 cells): 78%
CCCCCCCCCCCCCCCCCCNC(=O)OCC(COC(=O)NCc1scc[n+]1C)OC (stereo not shown) [Example 140, 2-[N-(3-Octadecylcarbamoyloxy-2-methoxypropoxycarbonyl)amino]methyl-3-methylthiazolium iodide]	100	100	100	inhibition at 0.03 µM [1]: 18%
CCCCCCCCCCCCCCCCCCNC(=O)OCC(CN1CC(=O)N(CC[n+]2ccsc2)C1=O)OC (stereo not shown) [Example 110, 1-[(2-methoxy-3-octadecylcarbamoyloxy)propyl]-3-(2-thiazolioethyl)hydantoinchloride]	100	100	34	–
